Reference: US12012396B2, “HDAC inhibitor solid state forms” (Viracta Subsidiary, Inc., priority 2020, dated 2024)
“Also recorded” adds a separate entry of the source.

Tests used:
Assay type in all cases: physicochemical
[1] = Thermodynamic aqueous solubility; conditions: water, after 24 hours equilibration
Protocol: Aqueous solubility was determined by suspending sufficient compound in 0.5 ml deionized water to give a maximum final concentration of 40 mg/mi of the parent free-form of the compound. The suspension was equilibrated at 25° C., on a Heidolph plate shaker set to 750 rpm for 24 hours. After equilibration, the appearance was noted and the pH of the saturated solution was measured. Samples forming suspensions were centrifuged for 4 min at 13,500 rpm. Samples were then filtered through a glass fiber C filter (particle retention 1.2 μm), before dilution with H2O as appropriate.
Quantitation was by HPLC (see Table 2 for parameters) with reference to a standard solution of approximately 0.15 mg/ml in DMSO. Different volumes of the standard, diluted and undiluted sample solutions were injected. The solubility was calculated using the peak areas determined by integration of the peak found at the same retention time as the principal peak in the standard injection. Analysis was performed on an AgilentHPl 100/Infinity II 1260 series system equipped with a diode array detector and using OpenLAB software.

[2] = Static storage stability at elevated temperature/humidity (XRPD, HPLC purity)
Protocol: XRPD diffractograms were collected on a Bruker D8 diffractometer using Cu Kα, radiation (40 kV, 40 mA) and a 0-20 goniometer fitted with a Ge monochromator. The incident beam passes through a 2.0 mm divergence slit followed by a 0.2 mm anti-scatter slit and knife edge. The diffracted beam passes through an 8.0 mm receiving slit with 2.5° Soller slits followed by the Lynxeye Detector. The software used for data collection and analysis was Diffrac Plus XRD Commander and Diffrac Plus EVA respectively.
XRPD diffractograms were collected on a PANalytical Empyrean diffractometer using Cu Kα, radiation (45 kV, 40 mA) in transmission geometry. A 0.5° slit, 4 mm mask and 0.04 rad Soller slits with a focusing mirror were used on the incident beam. A PIXcel3D detector, placed on the diffracted beam, was fitted with a receiving slit and 0.04 rad Soller slits. The software used for data collection was X'Pert Data Collector using X'Pert Operator Interface. The data were analyzed and presented using Diffrac Plus EVA or HighScore Plus.
Purity analysis was performed on an AgilentHP1100/Infinity 111260 series system equipped with a diode array detector and using OpenLAB software.

[3] = Gravimetric Vapour Sorption (GVS)
Protocol: Sorption isotherms were obtained using a SMS DVS Intrinsic moisture sorption analyser, controlled by DVS Intrinsic Control software. The sample temperature was maintained at 25° C. by the instrument controls. The humidity was controlled by mixing streams of dry and wet nitrogen, with a total flow rate of 200 ml/min. The relative humidity was measured by a calibrated Rotronic probe (dynamic range of 1.0-100% RH), located near the sample. The weight change, (mass relaxation) of the sample as a function of % RH was constantly monitored by a microbalance (accuracy ±0.005 mg). Typically, 20-30 mg of sample was placed in a tared mesh stainless steel basket under ambient conditions. The sample was loaded and unloaded at 40% RH and 25° C. (typical room conditions). A moisture sorption isotherm was performed as outlined below (2 scans per complete cycle). The standard isotherm was performed at 25° C. at 10% RH intervals over a 0-90% RH range. Typically, a double cycle (4 scans) was carried out. Data analysis was carried out within Microsoft Excel using the DVS Analysis Suite. [table]

physchem = conditions: thermodynamic from solid
Description: There was insufficient residue to characterize these further.

[4] = Competitive slurries of anhydrous and hydrated forms in different water activity
Protocol: Competitive slurries of the anhydrous and hydrated forms in different water activity at 50° C. and 5° C. were used to determine the thermodynamic stability relationships.

[5] = 7 days / 1 week at 25° C./97% RH
[6] = 7 days / 1 week at 40° C./75% RH

pH of saturated solution [1]: (pH = 3.2)
Purity after static storage ([2]; 14 weeks at 25° C./97% RH): 93.5%
Solid form by XRPD after static storage ([2]; 14 weeks at 25° C./97% RH): Mesylate Form 1
Purity after static storage ([2]; 14 weeks at 40° C./75% RH): Form 2 (94.7% purity)
HPLC purity after static storage [2, 5]: no significant drop in purity
HPLC purity after static storage [2, 6]: no significant drop in purity
Hygroscopicity by GVS ([3]; 25° C.): RH: Slightly hygroscopic.
solubility thermodynamic (physchem; fassgf or other biorelevant, Thermodynamic solubility in FaSSGF): 21000 µg/mL
solubility thermodynamic (physchem; fassif, Thermodynamic solubility in FaSSIF): 1900 µg/mL
solubility thermodynamic (physchem; fessif, Thermodynamic solubility in FeSSIF): 340 µg/mL
Water activity up to which the form was the most stable ([4]; competitive slurries at 5° C.): ≥ 0.3 aw
Water activity up to which the form was the most stable ([4]; competitive slurries at 50° C.): 0.6 aw
Compound: O=C(NO)c1cnc(N2C[C@@H]3[C@H](C2)[C@H]3NCc2ccc3cc(F)ccc3n2)nc1 [Mesylate Form 1, N-hydroxy 2-{6-[(6-fluoro-quinolin-2-ylmethyl)-amino]-3-aza-bicyclo[3.1.0]hex-3-yl}pyrimidine-5-carboxamide]
Solid form by XRPD after static storage [2, 5]: unchanged; also recorded: No change, Mesylate Form 1
Solid form by XRPD after static storage [2, 6]: unchanged; also recorded: No change, Mesylate Form 1
XRPD post-GVS ([3]; residue after GVS): no change; also recorded: XRPD remains unchanged
